Results as given in ChEMBL document CHEMBL2401704, “Inhibition of rhodesain as a novel therapeutic modality for human African trypanosomiasis” (J Med Chem, 2013).
≈ marks a conversion by molar mass, not a printed value. Residues, ends and D or L forms follow the SMILES beside them. *: point of attachment. Cbz = O=C(OCc1ccccc1)*

Columns and labels:
Trypanosoma brucei = assay: Inhibition of Trypanosoma brucei rhodesain assessed as second order rate constant
[1] = Cytotoxicity against human HL60 cells; format: cell-based, HL-60; conditions: for CC50: read-out: ED50 (the source's name); for MCC: read-out: MIC
[2] = tested on: Trypanosoma brucei brucei; assay: Antitrypanosomal activity against blood stream form of Trypanosoma brucei brucei; format: functional, organism-based; conditions: for EC50: read-out: ED50 (the source's name)
[3] = Selectivity index, ratio of ED50 for human HL60 cells to ED50 for Trypanosoma brucei brucei; format: toxicity, cell-based, HL-60; conditions: read-out: Ratio ED50
[4] = tested on: Trypanosoma brucei brucei; assay: Antitrypanosomal activity against procyclic form of Trypanosoma brucei brucei; format: functional; conditions: read-out: ED50 (the source's name)
[5] = Oral bioavailability in Sprague-Dawley rat; format: ADME, organism-based; conditions: in vivo
[6] = Inhibition of Trypanosoma brucei recombinant rhodesain
[7] = Inhibition of Trypanosoma brucei rhodesain
[8] = Inhibition of cathepsin B (unknown origin); design: species or system Homo sapiens
Cruzipain = Cruzipain (Trypanosoma cruzi, UniProt P25779); assay: Inhibition of Trypanosoma cruzi cruzain
Trypsin = Trypsin (Homo sapiens, UniProt P07477+P07478+P35030); assay: Inhibition of trypsin (unknown origin); format: protein assay
Papain = target: T1, Papain (Carica papaya, UniProt P00784); assay: Inhibition of papaya papain
T1 sequence (P00784 whole entry): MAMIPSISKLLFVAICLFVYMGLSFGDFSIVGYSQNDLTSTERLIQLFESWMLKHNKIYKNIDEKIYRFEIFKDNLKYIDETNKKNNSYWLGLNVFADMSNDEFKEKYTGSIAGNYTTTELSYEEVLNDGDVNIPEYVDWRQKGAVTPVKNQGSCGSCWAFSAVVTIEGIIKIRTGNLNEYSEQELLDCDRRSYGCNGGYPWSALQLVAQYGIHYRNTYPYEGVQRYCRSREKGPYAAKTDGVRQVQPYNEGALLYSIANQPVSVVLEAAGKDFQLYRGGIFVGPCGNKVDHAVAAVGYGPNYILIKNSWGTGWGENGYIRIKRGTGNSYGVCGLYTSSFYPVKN

Cruzipain, sequence (P25779 whole entry): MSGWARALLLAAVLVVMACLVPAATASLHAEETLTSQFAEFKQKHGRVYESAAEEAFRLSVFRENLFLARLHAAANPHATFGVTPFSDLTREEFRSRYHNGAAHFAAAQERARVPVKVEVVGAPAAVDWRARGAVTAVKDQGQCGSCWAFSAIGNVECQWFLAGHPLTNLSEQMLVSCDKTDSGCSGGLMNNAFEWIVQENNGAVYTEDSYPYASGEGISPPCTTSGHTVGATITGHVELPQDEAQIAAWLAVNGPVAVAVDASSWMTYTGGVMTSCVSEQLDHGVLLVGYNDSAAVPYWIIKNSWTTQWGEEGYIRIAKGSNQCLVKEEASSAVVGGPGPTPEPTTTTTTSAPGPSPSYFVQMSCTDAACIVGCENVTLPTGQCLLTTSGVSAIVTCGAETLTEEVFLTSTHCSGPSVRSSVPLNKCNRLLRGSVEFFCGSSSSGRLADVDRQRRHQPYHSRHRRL

Structure (SMILES) | K (Trypanosoma brucei) | MIC [2] [µM] | EC50 [2] [µM] | EC50 [4] [µM] | bioavailability [5] [%] | CC50 [1] [µM] | MCC [1] [µM] | selectivity ratio [3] | IC50 [6] [µM] | other results
CN1CCN(C(=O)N[C@@H](Cc2ccccc2)C(=O)N[C@H](/C=C/S(=O)(=O)c2ccccc2)CCc2ccccc2)CC1 [K-777] | 9 ×10⁶ /M/min |  | 0.9 | 5.8 | 19.9 |  |  |  | 0.00035 | 
O=C(N[C@H](/C=C/S(=O)(=O)c1ccccc1)CCc1ccccc1)[C@H](Cc1ccccc1)NC(=O)N1CCOCC1 |  |  | 5.6 | 7.3 | 3 |  |  |  | 0.00036 | 
Cn1nc(C(F)(F)F)cc1-c1ccc(NC(=O)Nc2cccc(C(F)(F)F)c2)s1 |  |  |  |  |  |  |  |  |  | IC50 [7]: 3 µM; IC50 [8]: 11 µM; IC50 (Cruzipain): 3.1 µM; IC50 (Trypsin): > 50 µM; IC50 (Papain): > 50 µM

Continued by falling EC50 [2], values first:

K (Trypanosoma brucei) | MIC [2] [µM] | EC50 [2] [µM] | EC50 [4] [µM] | bioavailability [5] [%] | Structure (SMILES) | CC50 [1] [µM] | MCC [1] [µM] | selectivity ratio [3] | IC50 [6] [µM] | other results
 |  | 0.13 |  |  | Cc1ccc(C(=O)Nc2ccc(S(=O)(=O)O)c3cc(S(=O)(=O)O)cc(S(=O)(=O)O)c23)cc1NC(=O)c1cccc(NC(=O)Nc2cccc(C(=O)Nc3cc(C(=O)Nc4ccc(S(=O)(=O)O)c5cc(S(=O)(=O)O)cc(S(=O)(=O)O)c45)ccc3C)c2)c1 [SURAMIN] |  |  | 1900 |  | 
1.38 ×10⁸ /M/min | 100 (≈ 44.7 µg/mL) | 0.045 |  |  | O=C[C@H](Cc1ccc(O)cc1)NC(=O)[C@H](Cc1ccccc1)NC(=O)OCc1ccccc1 (Cbz-Phe-Tyr-aldehyde) | 21.5 | > 100 | 482 |  | 
3.54 ×10⁷ /M/min | 10 (≈ 4.92 µg/mL) | 0.018 |  |  | CC[C@H](C)[C@H](NS(=O)(=O)c1cccc2ccccc12)C(=O)N[C@H](C=O)Cc1c[nH]c2ccccc12 | 21 | > 100 | 1150 |  | 
